Measurements as given in patent US10709692B2, “Isoxazolidine derived inhibitors of receptor interacting protein kinase 1 (RIPK1)” (Denali Therapeutics Inc., priority 2015, dated 2020).

target: T1, receptor interacting protein kinase 1 (GST-hRIPK1 (8-327)) (Homo sapiens, UniProt Q13546); assay: Fluorescent Polarization Binding (FP Binding) assay; settings: 10 nM GST-hRIPK1 (8-327), 5 nM fluorescent-labeled ligand, 30 min at RT
T1 construct: GST-hRIPK1 (8-327) enzyme was generated by Proteros GmbH by Baculovirus expression system
T1 sequence (Q13546 8-327): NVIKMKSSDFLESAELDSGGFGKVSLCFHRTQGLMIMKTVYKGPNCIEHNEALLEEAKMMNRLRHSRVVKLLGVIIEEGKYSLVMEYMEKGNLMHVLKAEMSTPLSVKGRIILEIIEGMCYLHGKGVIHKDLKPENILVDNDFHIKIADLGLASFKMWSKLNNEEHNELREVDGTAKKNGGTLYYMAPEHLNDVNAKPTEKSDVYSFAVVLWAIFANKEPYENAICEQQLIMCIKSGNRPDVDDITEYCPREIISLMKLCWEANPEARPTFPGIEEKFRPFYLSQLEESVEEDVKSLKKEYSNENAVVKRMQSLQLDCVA
Protocol: Fluorescent Polarization Binding (FP Binding) assay (Berger S. B. et al. (2015) Cell Death Discovery, 1: 15009; Maki J. L. et al. (2012) Anal Biochem., 427(2): 164-174) was performed in polystyrene low volume 384-well black plate, at Room Temperature (RT) in a final volume of 10.1 μl/well using 10 nM of GST-hRIPK1 (8-327) enzyme and 5 nM of fluorescent-labeled ligand (14-(2-{[3-({2-{[4-(cyanomethyl)phenyl]amino}-6-[(5-cyclopropyl-1H-pyrazol-3-yl)amino]-4-pyrimidinyl}amino) propyl]amino}-2-oxoethyl)-16,16,18,18-tetramethyl-6,7,7a,8a,9,10,16,18-octahydrobenzo[2″3″]indolizino[8″, 0.7″:5′,6′]pyrano[3′,2′:3,4]pyrido[1,2-a]indol-5-ium-2-sulfonate.
Test compounds were serially diluted in DMSO at 100 fold final concentrations in the assay (1% DMSO final). In each well of a 384-well Plate were dispensed 0.1 μL of compound solution (or DMSO for controls) followed by 5 μL of GST-hRIPK1 (8-327) at twice the final concentrations in assay-buffer (50 mM HEPES pH 7.5, 10 mM NaCl, 50 mM MgCl2, 0.02% CHAPS, 0.5 mM DTT and 0.01% Pluronic F127). For negative control the enzyme addition was replaced by assay buffer only.
After addition of 5 μL of fluorescent-labeled ligand at twice the final concentrations in assay buffer, the plate was incubated at RT for 30 min. At the end, the binding was measured as FP value with the Envision (PerkinElmer) plate reader using filter for an excitation λ=531 nm FP and an emission λ=595 nm FP (S & P-pol).
Test compound inhibition was expressed as percent inhibition of internal assay controls. For concentration response curves, normalized data is fit and IC50 determined using XL-fit (IDBS) for Excel. IC50 were averaged to determine a mean value, for a minimum of two independent experiments.
Receptor interacting protein kinase 1 activity of exemplary compounds was determined according to the above general procedures.
Receptor interacting protein kinase 1 activity of certain compounds was determined according to the above general procedures.

Row | Structure (SMILES) | IC50 [nM]
1 | CC1(C(=O)N2OCC[C@H]2c2ccc(F)cc2)CN(CC(F)F)C1 [Compound 90, (3S)-2-[1-(2,2-difluoroethyl)-3-methylazetidine-3-carbonyl]-3-(4-fluorophenyl)-1,2-oxazolidine] | < 1000
2 | CC1(S(=O)(=O)N2OCC[C@H]2c2ccc(F)nc2)CC1 [Compound 93, 2-fluoro-5-[(3S)-2-[(1-methylcyclopropyl)sulfonyl]-1,2-oxazolidin-3-yl]pyridine] | 1000 to 10000
3 | CC(C)(CO)C(=O)N1OCC[C@H]1c1ccc(F)cc1 [Compound 96, 1-[(3S)-3-(4-fluorophenyl)-1,2-oxazolidin-2-yl]-3-hydroxy-2,2-dimethylpropan-1-one] | < 1000
4 | Cc1cnc([C@@H]2CCON2C(=O)C(C)(C)CC#N)cn1 [Compound 104, 3,3-dimethyl-4-[(3S)-3-(5-methylpyrazin-2-yl)-1,2-oxazolidin-2-yl]-4-oxobutanenitrile] | < 1000
5 | CC(C)(C)C(=O)N1OCC[C@H]1c1ccn2ccnc2c1 [Compound 110, 1-[(3S)-3-{imidazo[1,2-A]pyridin-7-yl}-1-oxazolidin-2-yl]-2,2-dimethylpropan-1-one] | < 1000
6 | CC(C)(C)C(=O)N1OCC[C@H]1c1cn2ccccc2n1 [Compound 111, 1-(3S)-3-{imidazo[1,2-A]pyridin-2-yl}-1,2-oxazolidin-2-yl-2,2-dimethylpropan-1-one] | 1000 to 10000
7 | CC(C)(C)C(=O)N1OCC[C@H]1c1ncc(Cl)cc1F [Compound 121, 1-[(3S)-3-(5-chloro-3-fluoropyridin-2-yl)-1,2-oxazolidin-2-yl]-2,2-dimethylpropan-1-one] | < 1000
8 | CC(C)(C)C(=O)N1OCC[C@H]1c1ccc(C(F)(F)F)cn1 [Compound 122, 2,2-dimethyl-(3S)-3-[5-(trifluoromethyl)pyridin-2-yl-1,2-oxazolidin-2-yl]propan-1-one] | < 1000
9 | CC(C)(C)C(=O)N1OCC[C@H]1c1nc(C(F)(F)F)cs1 [Compound 123, 2,2-dimethyl-1-[(3S)-3-[4-(trifluoromethyl)-1,3-thiazol-2-yl]-1,2-oxazolidin-2-yl]propan-1-one] | 1000 to 10000
10 | CC(C)(C)C(=O)N1OCC[C@H]1c1cc2ccccn2n1 [Compound 124, 2,2-dimethyl-1-[(3S)-3-{pyrazolo[1,5-A]pyridin-2-yl}-1,2-oxazolidin-2-yl]propan-1-one] | < 1000
11 | Cc1ncc([C@@H]2CCON2C(=O)C(C)(C)C(F)F)cn1 [Compound 126, 3,3-difluoro-2,2-dimethyl-1-[(3S)-3-(2-methylpyrimidin-5-yl)-1,2-oxazolidin-2-yl]propan-1-one] | < 1000
12 | CC(C)(C)C(=O)N1OCC[C@H]1c1ccn2nccc2c1 [Compound 132, 2,2-dimethyl-1-[(3S)-3-{pyrazolo[1,5-a]pyridin-5-yl}-1,2-oxazolidin-2-yl]propan-1-one] | < 1000
13 | CC(C)(C)C(=O)N1OCC[C@@H]1c1ccc(F)cc1F [Compound 134, 1-[(3R)-3-(2,4-difluorophenyl)-1,2-oxazolidin-2-yl]-2,2-dimethylpropan-1-one] | < 1000
14 | CC(C)(C)C(=O)N1OCC[C@H]1c1ccc(F)cc1F [Compound 135, 1-[(3S)-3-(2,4-difluorophenyl)-1,2-oxazolidin-2-yl]-2,2-dimethylpropan-1-one] | < 1000
15 | Cc1cnc([C@@H]2CCON2C(=O)C(C)(C)C)cn1 [Compound 138, 2,2-dimethyl-1-[(3S)-3-(5-methylpyrazin-2-yl)-1,2-oxazolidin-2-yl]propan-1-one] | < 1000
16 | CC(C)(COC(F)(F)F)C(=O)N1OCC[C@H]1c1cncc(F)c1 [Compound 139, 1-[(3S)-3-(5-fluoropyridin-3-yl)-1,2-oxazolidin-2-yl]-2,2-dimethyl-3-(trifluoromethoxy)propan-1-one] | < 1000
17 | CC(C)(C)C(=O)N1OCC[C@H]1c1cccc2ccnn12 [Compound 140, 2,2-dimethyl-1-[(3S)-3-{pyrazolo[1,5-a]pyridin-7-yl}-1,2-oxazolidin-2-yl]propan-1-one] | < 1000

More lines, now with the values ahead:

Row | IC50 [nM] | Structure (SMILES)
18 | 1000 to 10000 | CC(C)(C)C(=O)N1OCC[C@@H]1c1cccc(F)c1 [Compound 82, (R)-1-(3-(3-fluorophenyl)isoxazolidin-2-yl)-2,2-dimethylpropan-1-one]
19 | < 1000 | CC(C)(C)C(=O)N1OCC[C@H]1c1ccc(Cl)cn1 [Compound 89, 1-[(3S)-3-(5-chloropyridin-2-yl)-1,2-oxazolidin-2-yl]-2,2-dimethylpropan-1-one]
20 | < 1000 | CC(C)(C)C(=O)N1OCC[C@H]1c1ccc(C(F)F)nc1 [Compound 105, 1-[(3S)-3-[6-(difluoromethyl)pyridin-3-yl]-1,2-oxazolidin-2-yl]-2,2-dimethylpropan-1-one]
21 | < 1000 | CC(C)(C)C(=O)N1OCC[C@H]1c1ccc(C(F)(F)F)nc1 [Compound 120]
22 | < 1000 | Cc1ncc([C@@H]2CCON2C(=O)C(C)(C)C)cn1 [Compound 125, 2,2-dimethyl-1-[(3S)-3-(2-methylpyrimidin-5-yl)-1,2-oxazolidin-2-yl]propan-1-one]
23 | < 1000 | CC(C)(C)C(=O)N1OCC[C@H]1c1ccc(F)cn1 [Compound 127, 1-[(3S)-3-(5-fluoropyridin-2-yl)-1,2-oxazolidin-2-yl]-2,2-dimethylpropan-1-one]
24 | < 1000 | CC(C)(C)C(=O)N1OCC[C@H]1c1ccc(C(F)F)cc1 [Compound 128, 1-[(3S)-3-[4-(difluoromethyl)phenyl]-1,2-oxazolidin-2-yl]-2,2-dimethylpropan-1-one]
25 | < 1000 | CC(C)(CC#N)C(=O)N1OCC[C@H]1c1ccc(C(F)F)nc1 [Compound 131, 4-(3S)-3-[6-(difluoromethyl)pyridin-3-yl]-1,2-oxazolidin-2-yl-3,3-dimethyl-4-oxobutanenitrile]
26 | < 1000 | CC(C)(C)C(=O)N1OCC[C@H]1c1cncc(F)c1 [Compound 133, 1-[(3S)-3-(5-fluoropyridin-3-yl)-1,2-oxazolidin-2-yl]-2,2-dimethylpropan-1-one]
27 | < 1000 | CC(C)(C)C(=O)N1OCC[C@H]1c1ccc(C#N)nc1 [Compound 143, 5-[(3S)-2-(2,2-dimethylpropanoyl)-1,2-oxazolidin-3-yl]pyridine-2-carbonitrile]
28 | < 1000 | COc1cc([C@@H]2CCON2C(=O)C(C)(C)C)ccn1 [Compound 144, 1-[(3S)-3-(2-methoxypyridin-4-yl)-1,2-oxazolidin-2-yl]-2,2-dimethylpropan-1-one]
29 | < 1000 | COc1ccc([C@@H]2CCON2C(=O)C(C)(C)C)cn1 [Compound 145, 1-[(3S)-3-(6-methoxypyridin-3-yl)-1,2-oxazolidin-2-yl]-2,2-dimethylpropan-1-one]
30 | < 1000 | CC(C)(C)C(=O)N1OCC[C@H]1c1ccccc1C#N [Compound 146, 2-[(3S)-2-(2,2-dimethylpropanoyl)-1,2-oxazolidin-3-yl]benzonitrile]
31 | < 1000 | CC(C)(C)C(=O)N1OCC[C@H]1c1cccc(C#N)c1 [Compound 147, 3-[(3S)-2-(2,2-dimethylpropanoyl)-1,2-oxazolidin-3-yl]benzonitrile]
32 | < 1000 | CC(C)(C)C(=O)N1OCC[C@H]1c1ccc(C2CC2)nc1 [Compound 148, 1-[(3S)-3-(6-cyclopropylpyridin-3-yl)-1,2-oxazolidin-2-yl]-2,2-dimethylpropan-1-one]
